Data set [1] in a line: The drug is tested on Dorea formicigenerans strain: ATCC27755 for biotransformation. The drug concentrations were measured before and after a 12-h incubation by liquid-chromatography-coupled mass spectrometry (LC–MS). The following applies: 2 µM.
For data set [2] the following is noted: parabacteroides distasonis, 12 h, 2 µM.
Description: The drug is tested on Parabacteroides distasonis strain: ATCC8503 for biotransformation. The drug concentrations were measured before and after a 12-h incubation by liquid-chromatography-coupled mass spectrometry (LC–MS)
Data set [3] in a line: The drug is tested on Enterobacter cancerogenus strain: ATCC35316 for biotransformation. The drug concentrations were measured before and after a 12-h incubation by liquid-chromatography-coupled mass spectrometry (LC–MS). Particulars: 2 µM.
For data set [4] the following is noted: enterocloster bolteae, 12 h, 2 µM.
Description: The drug is tested on Clostridium bolteae strain: ATCCBAA-613 for biotransformation. The drug concentrations were measured before and after a 12-h incubation by liquid-chromatography-coupled mass spectrometry (LC–MS)
For data set [5] the following is noted: bacteroides intestinalis, 12 h, 2 µM.
Description: The drug is tested on Bacteroides intestinalis strain: DSM17393 for biotransformation. The drug concentrations were measured before and after a 12-h incubation by liquid-chromatography-coupled mass spectrometry (LC–MS)
Data set [6] can be described thus: The drug is tested on Coprococcus comes strain: ATCC27758 for biotransformation. The drug concentrations were measured before and after a 12-h incubation by liquid-chromatography-coupled mass spectrometry (LC–MS). The class given is ADME. Also on record: dose 2 uM, timepoint 0 vs 12 hours. The following applies: 2 µM.
The nature of data set [7]: The drug is tested on Bacteroides vulgatus strain: ATCC8482 for biotransformation. The drug concentrations were measured before and after a 12-h incubation by liquid-chromatography-coupled mass spectrometry (LC–MS). The following applies: phocaeicola vulgatus, 2 µM.
Data set [8] is described as follows: The drug is tested on Ruminococcus gnavus strain: ATCC29149 for biotransformation. The drug concentrations were measured before and after a 12-h incubation by liquid-chromatography-coupled mass spectrometry (LC–MS). Particulars: mediterraneibacter gnavus, 2 µM.
Data set [9] can be described thus: The drug is tested on Providencia stuartii strain: ATCC25827 for biotransformation. The drug concentrations were measured before and after a 12-h incubation by liquid-chromatography-coupled mass spectrometry (LC–MS). Particulars: 2 µM.
For data set [10] the following is noted: bacteroides stercoris, 12 h, 2 µM.
Description: The drug is tested on Bacteroides stercoris strain: ATCC43183 for biotransformation. The drug concentrations were measured before and after a 12-h incubation by liquid-chromatography-coupled mass spectrometry (LC–MS)
A short description of data set [11]: The drug is tested on Bacteroides cellulosilyticus strain: DSM14838 for biotransformation. The drug concentrations were measured before and after a 12-h incubation by liquid-chromatography-coupled mass spectrometry (LC–MS). The following applies: 2 µM.
A short description of data set [12]: The drug is tested on Edwardsiella tarda strain: ATCC23685 for biotransformation. The drug concentrations were measured before and after a 12-h incubation by liquid-chromatography-coupled mass spectrometry (LC–MS). The following applies: 2 µM.
For data set [13] the following is noted: akkermansia muciniphila, 12 h, 2 µM.
Description: The drug is tested on Akkermansia muciniphila strain: ATCC BAA-835 for biotransformation. The drug concentrations were measured before and after a 12-h incubation by liquid-chromatography-coupled mass spectrometry (LC–MS)
Data set [14] in a line: The drug is tested on Bacteroides pectinophilus strain: ATCC43243 for biotransformation. The drug concentrations were measured before and after a 12-h incubation by liquid-chromatography-coupled mass spectrometry (LC–MS). The following applies: 2 µM.
A short description of data set [15]: The drug is tested on Bacteroides coprophilus strain: DSM18228 for biotransformation. The drug concentrations were measured before and after a 12-h incubation by liquid-chromatography-coupled mass spectrometry (LC–MS). Particulars: 2 µM.
A short description of data set [16]: The drug is tested on Bacteroides xylanisolvens strain: DSM18836 for biotransformation. The drug concentrations were measured before and after a 12-h incubation by liquid-chromatography-coupled mass spectrometry (LC–MS). Particulars: 2 µM.
The conditions of data set [17]: parabacteroides johnsonii, 12 h, 2 µM.
Description: The drug is tested on Parabacteroides johnsonii strain: DSM18315 for biotransformation. The drug concentrations were measured before and after a 12-h incubation by liquid-chromatography-coupled mass spectrometry (LC–MS)
Data set [18] in a line: The drug is tested on Bacteroides fragilis strain: HMW615 for biotransformation. The drug concentrations were measured before and after a 12-h incubation by liquid-chromatography-coupled mass spectrometry (LC–MS). Particulars: 2 µM.
The nature of data set [19]: The drug is tested on Bacteroides fragilis strain: HMW610 for biotransformation. The drug concentrations were measured before and after a 12-h incubation by liquid-chromatography-coupled mass spectrometry (LC–MS). Particulars: 2 µM.

Molecules are shown by their SMILES.

`CCCCCCOC(=O)/N=C(/N)c1ccc(NCc2nc3cc(C(=O)N(CCC(=O)OCC)c4ccccn4)ccc3n2C)cc1.CS(=O)(=O)O` [DABIGATRAN ETEXILATE MESYLATE]: the “Bacterial Biotransformation” value in data set [1], in data set [2], in data set [3], in [4], in data set [5] and in [6] was “Compound NOT metabolized” throughout. Moreover, the “Bacterial Biotransformation” value in data set [7], in [8], in [9], in [10], in data set [11] and in [12] was “Compound NOT metabolized” in each case. In addition, the “Bacterial Biotransformation” value in data set [13], in [14] and in [15] was “Compound NOT metabolized” each time.

For `C[C@]12CCC(=O)C=C1[C@@H]1C[C@@H]1[C@H]1[C@@H]3[C@@H]4C[C@@H]4[C@@]4(CCC(=O)O4)[C@@]3(C)CC[C@@H]12` [DROSPIRENONE], the “Bacterial Biotransformation” value in data set [1] is recorded as “Compound NOT metabolized”; in data set [16], “Compound metabolized”; in data set [17] it was “Compound metabolized”; in data set [18] it was “Compound metabolized”; in data set [2], “Compound NOT metabolized”; in data set [4], “Compound NOT metabolized”. Also, the “Bacterial Biotransformation” value is recorded as “Compound NOT metabolized” in data set [5]; “Compound metabolized” in data set [19]; “Compound metabolized” in data set [7]; “Compound metabolized” in [8]; “Compound NOT metabolized” in [10]; “Compound NOT metabolized” in data set [11]. For the same compound, the “Bacterial Biotransformation” value in data set [12], in data set [13] and in data set [14] was “Compound NOT metabolized” throughout.

With `O=C1N=C([O-])NC1(c1ccccc1)c1ccccc1.[Na+]` [PHENYTOIN SODIUM], the “Bacterial Biotransformation” value in data set [1] was “Compound NOT metabolized”; in data set [16], “Compound NOT metabolized”; in data set [17], “Compound metabolized”; in data set [18], “Compound NOT metabolized”; in [2], “Compound metabolized”; in data set [4], “Compound NOT metabolized”. In addition, the “Bacterial Biotransformation” value in data set [5] was “Compound NOT metabolized”; in data set [19] it was “Compound NOT metabolized”; in data set [6] it was “Compound NOT metabolized”; in data set [7], “Compound metabolized”; in data set [8] it was “Compound NOT metabolized”; in data set [9], “Compound NOT metabolized”. Also, the “Bacterial Biotransformation” value in data set [10] is “Compound NOT metabolized”; in [11], “Compound metabolized”; in [14], “Compound NOT metabolized”; in data set [15], “Compound metabolized”.

With `CCN(CC)CCCC(C)Nc1c2ccc(Cl)cc2nc2ccc(OC)cc12` (stereo not given) [QUINACRINE], the “Bacterial Biotransformation” value in data set [1], in data set [16], in data set [2], in data set [3], in data set [4] and in data set [5] was “Compound NOT metabolized” in each case. The “Bacterial Biotransformation” value in data set [6], in data set [7], in data set [9], in data set [10], in [11] and in data set [13] was “Compound NOT metabolized” throughout. For the same compound, the “Bacterial Biotransformation” value in data set [14] and in [15] was “Compound NOT metabolized” each time.

The values are drawn from ChEMBL document CHEMBL5303573, “Mapping human microbiome drug metabolism by gut bacteria and their genes” (Nature, 2019).
